Test results published in US12180193B2, “Accelerating fibrosarcoma protein degrading compounds and associated methods of use” (Arvinas Operations, Inc., priority 2020, dated 2024).
Where two headings read alike, the source gives them in different places.

Legend:
[1] = target: T1, BRAF V600E (Homo sapiens, UniProt P15056, V600E); test: Cellular assay of target protein degradation, T-Rex 293 cells stably transfected with HA-BRAF_V600E (HA immunofluorescence, high content imaging); format: cell-based
T1 construct: expressed in transfected cells
How it was run: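 Cells are plated with 1 ng/mL doxycycline and grown 24 h. Compound is then added (final 1 μM–0.1 nM, 0.1% DMSO) for another 24 h at 37 °C, followed by fixing, HA immunostaining and imaging to obtain DC50 and Dmax.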

[2] = target: T2, BRAF G466V (Homo sapiens, UniProt P15056, G466V); test: Cellular assay of target protein degradation, T-Rex 293 cells stably transfected with HA-BRAF G466V (HA immunofluorescence, high content imaging); format: cell-based
T2 construct: expressed in transfected cells
How it was run: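 Read-out is HA immunofluorescence by high content imaging, with Hoechst and phalloidin co-staining, giving DC50 and Dmax as a percentage of control. Compound exposure lasts 24 hours at 37° C over 30 nM to 3 pM in 0.1% DMSO, with doxycycline-induced HA-BRAF G466V.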

[3] = half maximal degradation, T-Rex 293 HA-BRAF V600E; read-out: BRaf V600E DC50
[4] = maximum degradation observed, T-Rex 293 HA-BRAF V600E
[5] = half maximal degradation, T-Rex 293 HA-BRAF G466V; read-out: BRaf G466V DC50
[6] = maximum degradation observed, T-Rex 293 HA-BRAF G466V

T1 sequence (P15056 whole entry V600E): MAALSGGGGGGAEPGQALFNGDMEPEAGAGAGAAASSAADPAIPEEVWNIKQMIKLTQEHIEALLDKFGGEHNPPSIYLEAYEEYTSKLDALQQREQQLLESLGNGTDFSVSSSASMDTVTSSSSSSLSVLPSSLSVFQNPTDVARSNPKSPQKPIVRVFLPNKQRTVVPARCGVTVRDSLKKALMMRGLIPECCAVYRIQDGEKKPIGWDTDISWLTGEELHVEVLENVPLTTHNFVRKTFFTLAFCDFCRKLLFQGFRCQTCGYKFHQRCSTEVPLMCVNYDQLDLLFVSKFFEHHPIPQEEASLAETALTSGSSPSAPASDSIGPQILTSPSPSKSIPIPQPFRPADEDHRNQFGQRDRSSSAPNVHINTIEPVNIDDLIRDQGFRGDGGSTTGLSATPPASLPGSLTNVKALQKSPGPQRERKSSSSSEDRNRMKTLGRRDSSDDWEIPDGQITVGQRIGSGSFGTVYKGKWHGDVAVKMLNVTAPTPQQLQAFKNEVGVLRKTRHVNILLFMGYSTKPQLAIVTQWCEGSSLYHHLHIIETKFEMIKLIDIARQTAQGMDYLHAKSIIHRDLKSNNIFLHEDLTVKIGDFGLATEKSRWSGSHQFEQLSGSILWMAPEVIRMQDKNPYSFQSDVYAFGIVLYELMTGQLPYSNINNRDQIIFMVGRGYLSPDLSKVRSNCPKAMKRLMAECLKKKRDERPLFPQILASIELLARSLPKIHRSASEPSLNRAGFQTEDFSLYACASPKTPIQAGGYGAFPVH
T2 sequence (P15056 whole entry G466V): as the sequence (P15056 whole entry V600E) above, with G466V, E600V counted along it

SMILES: C[C@@H]1CN(c2ccc(-c3cnc4[nH]cc(C(=O)c5c(F)ccc(NS(=O)(=O)N6CC[C@@H](F)C6)c5F)c4c3)cc2)C[C@H](C)N1CC1CN(c2ccc3c(c2)CN(C2CCC(=O)NC2=O)C3=O)C1 (stereo partly drawn) [Compound 53, (3R)-N-[3-(5-{4-[(3R,5S)-4-({1-[2-(2,6-dioxopiperidin-3-yl)-1-oxo-2,3-dihydro-1H-isoindol-5-yl]azetidin-3-yl}methyl)-3,5-dimethylpiperazin-1-yl]phenyl}-1H-pyrrolo[2,3-b]pyridine-3-carbonyl)-2,4-difluorophenyl]-3-fluoropyrrolidine-1-sulfonamide]
- DC50 [1, 3]: 5 to 50 nM
- Dmax [1, 4]: 35 to 70%
- DC50 [2, 5]: < 1 nM
- Dmax [2, 6]: > 70%

SMILES: O=C1CCC(c2ccc(C3CCN(CCC4CCN(c5ccc(-c6cnc7[nH]cc(C(=O)c8c(F)ccc(NS(=O)(=O)N9CC[C@@H](F)C9)c8F)c7c6)cc5)CC4)CC3)cc2F)C(=O)N1 (stereo partly drawn) [Compound 178, (3R)-N-[3-(5-{4-[4-(2-{4-[4-(2,6-dioxopiperidin-3-yl)-3-fluorophenyl]piperidin-1-yl}ethyl)piperidin-1-yl]phenyl}-1H-pyrrolo[2,3-b]pyridine-3-carbonyl)-2,4-difluorophenyl]-3-fluoropyrrolidine-1-sulfonamide]
- DC50 [1, 3]: 5 to 50 nM
- Dmax [1, 4]: < 35%
- DC50 [2, 5]: 1 to 10 nM
- Dmax [2, 6]: > 70%

SMILES: O=C1CCC(NC(=O)N2CCCc3c(N4CCN(CC5CCN(c6ccc(-c7cnc8[nH]cc(C(=O)c9c(F)ccc(NS(=O)(=O)N%10CC[C@@H](F)C%10)c9F)c8c7)cc6)CC5)CC4)ccnc32)C(=O)N1 (stereo partly drawn) [Compound 370, 5-(4-{[1-(4-{3-[2,6-difluoro-3-({[(3R)-3-fluoropyrrolidin-1-yl]sulfonyl}amino)benzoyl]-1H-pyrrolo[2,3-b]pyridin-5-yl}phenyl)piperidin-4-yl]methyl}piperazin-1-yl)-N-(2,6-dioxopiperidin-3-yl)-1,2,3,4-tetrahydro-1,8-naphthyridine-1-carboxamide]
- DC50 [1, 3]: 5 to 50 nM
- Dmax [1, 4]: 35 to 70%
- DC50 [2, 5]: 1 to 10 nM
- Dmax [2, 6]: > 70%

SMILES: COc1cc(N2CCC(CN3CCN(c4ccc(-c5cnc6[nH]cc(C(=O)c7c(F)ccc(NS(=O)(=O)N8CC[C@@H](F)C8)c7F)c6c5)cc4)CC3)CC2)ccc1C(=O)N[C@H]1CCC(=O)NC1=O [Compound 357, 4-(4-{[4-(4-{3-[2,6-difluoro-3-({[(3R)-3-fluoropyrrolidin-1-yl]sulfonyl}amino)benzoyl]-1H-pyrrolo[2,3-b]pyridin-5-yl}phenyl)piperazin-1-yl]methyl}piperidin-1-yl)-N-[(3S)-2,6-dioxopiperidin-3-yl]-2-methoxybenzamide]
- DC50 [1, 3]: 5 to 50 nM
- Dmax [1, 4]: 35 to 70%
- DC50 [2, 5]: 1 to 10 nM
- Dmax [2, 6]: > 70%

SMILES: COc1cc(N2CC3(CN(CCc4ccc(-c5cnc6[nH]cc(C(=O)c7c(F)ccc(NS(=O)(=O)N8CC[C@@H](F)C8)c7F)c6c5)cc4)C3)C2)ccc1C(=O)NC1CCC(=O)NC1=O (stereo partly drawn) [Compound 362, 4-{6-[2-(4-{3-[2,6-difluoro-3-({[(3R)-3-fluoropyrrolidin-1-yl]sulfonyl}amino)benzoyl]-1H-pyrrolo[2,3-b]pyridin-5-yl}phenyl)ethyl]-2,6-diazaspiro[3.3]heptan-2-yl}-N-(2,6-dioxopiperidin-3-yl)-2-methoxybenzamide]
- DC50 [1, 3]: 5 to 50 nM
- Dmax [1, 4]: 35 to 70%
- DC50 [2, 5]: 1 to 10 nM
- Dmax [2, 6]: > 70%

SMILES: O=C1CC[C@@H](N2Cc3cc(C4CCN(CC5CCN(c6ccc(-c7cnc8[nH]cc(C(=O)c9c(F)ccc(NS(=O)(=O)N%10CCCC%10)c9F)c8c7)cc6)CC5)CC4)ccc3C2=O)C(=O)N1 [Compound 231, N-{3-[5-(4-{4-[(4-{2-[(3R)-2,6-dioxopiperidin-3-yl]-1-oxo-2,3-dihydro-1H-isoindol-5-yl}piperidin-1-yl)methyl]piperidin-1-yl}phenyl)-1H-pyrrolo[2,3-b]pyridine-3-carbonyl]-2,4-difluorophenyl}pyrrolidine-1-sulfonamide]
- DC50 [1, 3]: 5 to 50 nM
- Dmax [1, 4]: 35 to 70%
- DC50 [2, 5]: 1 to 10 nM
- Dmax [2, 6]: > 70%

SMILES: O=C1CC[C@@H](N2Cc3cc(C[C@@H](O)CN4CC5(C4)CN(c4ccc(-c6cnc7[nH]cc(C(=O)c8c(F)ccc(NS(=O)(=O)N9CC[C@@H](F)C9)c8F)c7c6)cc4)C5)ccc3C2=O)C(=O)N1 [Compound 129, (3R)-N-{3-[5-(4-{6-[(2R)-3-{2-[(3R)-2,6-dioxopiperidin-3-yl]-1-oxo-2,3-dihydro-1H-isoindol-5-yl}-2-hydroxypropyl]-2,6-diazaspiro[3.3]heptan-2-yl}phenyl)-1H-pyrrolo[2,3-b]pyridine-3-carbonyl]-2,4-difluorophenyl}-3-fluoropyrrolidine-1-sulfonamide]
- DC50 [1, 3]: 5 to 50 nM
- Dmax [1, 4]: 35 to 70%
- DC50 [2, 5]: 1 to 10 nM
- Dmax [2, 6]: > 70%

SMILES: COc1cc(N2CCC(CN3CC4(C3)CN(c3ccc(-c5cnc6[nH]cc(C(=O)c7c(F)ccc(NS(=O)(=O)N8CC[C@@H](F)C8)c7F)c6c5)cc3)C4)CC2)cc2c1C(=O)N([C@H]1CCC(=O)NC1=O)C2 [Compound 226, (3R)-N-{3-[5-(4-{6-[(1-{2-[(3S)-2,6-dioxopiperidin-3-yl]-7-methoxy-1-oxo-2,3-dihydro-1H-isoindol-5-yl}piperidin-4-yl)methyl]-2,6-diazaspiro[3.3]heptan-2-yl}phenyl)-1H-pyrrolo[2,3-b]pyridine-3-carbonyl]-2,4-difluorophenyl}-3-fluoropyrrolidine-1-sulfonamide]
- DC50 [1, 3]: 5 to 50 nM
- Dmax [1, 4]: < 35%
- DC50 [2, 5]: 1 to 10 nM
- Dmax [2, 6]: > 70%

SMILES: O=C1CCC(N2Cc3cc(N4CCN(CC5CN(c6ccc(-c7cnc8[nH]cc(C(=O)c9c(F)ccc(NS(=O)(=O)N%10CC[C@@H](F)C%10)c9F)c8c7)cn6)C5)CC4)ccc3C2=O)C(=O)N1 (stereo partly drawn) [Compound 101, (3R)-N-[3-(5-{6-[3-({4-[2-(2,6-dioxopiperidin-3-yl)-1-oxo-2,3-dihydro-1H-isoindol-5-yl]piperazin-1-yl}methyl)azetidin-1-yl]pyridin-3-yl}-1H-pyrrolo[2,3-b]pyridine-3-carbonyl)-2,4-difluorophenyl]-3-fluoropyrrolidine-1-sulfonamide]
- DC50 [1, 3]: 5 to 50 nM
- Dmax [1, 4]: 35 to 70%
- DC50 [2, 5]: 1 to 10 nM
- Dmax [2, 6]: > 70%

SMILES: COc1cc(OCCCCN2CCN(c3ccc(-c4cnc5[nH]cc(C(=O)c6c(F)ccc(NS(=O)(=O)N7CC[C@@H](F)C7)c6F)c5c4)cc3)CC2)cc2c1C(=O)N(C1CCC(=O)NC1=O)C2 (stereo partly drawn) [Compound 331, (3R)-N-[3-(5-{4-[4-(4-{[2-(2,6-dioxopiperidin-3-yl)-7-methoxy-1-oxo-2,3-dihydro-1H-isoindol-5-yl]oxy}butyl)piperazin-1-yl]phenyl}-1H-pyrrolo[2,3-b]pyridine-3-carbonyl)-2,4-difluorophenyl]-3-fluoropyrrolidine-1-sulfonamide]
- DC50 [1, 3]: 5 to 50 nM
- Dmax [1, 4]: 35 to 70%
- DC50 [2, 5]: 1 to 10 nM
- Dmax [2, 6]: 35 to 70%

SMILES: O=C1CCC(c2ccc(C3CCN(CC4CCN(c5ccc(-c6cnc7[nH]cc(C(=O)c8c(F)ccc(NS(=O)(=O)N9CC[C@@H](F)C9)c8F)c7c6)cc5)CC4)CC3)cn2)C(=O)N1 (stereo partly drawn) [Compound 365, (3R)-N-[3-(5-{4-[4-({4-[6-(2,6-dioxopiperidin-3-yl)pyridin-3-yl]piperidin-1-yl}methyl)piperidin-1-yl]phenyl}-1H-pyrrolo[2,3-b]pyridine-3-carbonyl)-2,4-difluorophenyl]-3-fluoropyrrolidine-1-sulfonamide]
- DC50 [1, 3]: 5 to 50 nM
- Dmax [1, 4]: > 70%
- DC50 [2, 5]: 1 to 10 nM
- Dmax [2, 6]: > 70%

SMILES: CC(C)(C1CCN(c2ccc(-c3cnc4[nH]cc(C(=O)c5c(F)ccc(NS(=O)(=O)N6CC[C@@H](F)C6)c5F)c4c3)cc2)CC1)N1CCN(c2ccc3c(c2)CN(C2CCC(=O)NC2=O)C3=O)CC1 (stereo partly drawn) [Compound 97, (3R)-N-[3-(5-{4-[4-(2-{4-[2-(2,6-dioxopiperidin-3-yl)-1-oxo-2,3-dihydro-1H-isoindol-5-yl]piperazin-1-yl}propan-2-yl)piperidin-1-yl]phenyl}-1H-pyrrolo[2,3-b]pyridine-3-carbonyl)-2,4-difluorophenyl]-3-fluoropyrrolidine-1-sulfonamide]
- Dmax [1, 4]: 35 to 70%
- DC50 ([1]; read-out: BRaf V600E DC50; half maximal degradation, T-Rex 293 HA-BRAF V600E): 5 to 50 nM
- Dmax [2, 6]: > 70%
- DC50 ([2]; read-out: BRaf G466V DC50; half maximal degradation, T-Rex 293 HA-BRAF G466V): 1 to 10 nM

SMILES: O=C1CC[C@H](N2Cc3cc(C4CCN(CC5CCN(c6ccc(-c7cnc8[nH]cc(C(=O)c9c(F)ccc(NS(=O)(=O)CC%10CC%10)c9F)c8c7)cc6)CC5)CC4)ccc3C2=O)C(=O)N1 [Compound 206, 1-cyclopropyl-N-{3-[5-(4-{4-[(4-{2-[(3S)-2,6-dioxopiperidin-3-yl]-1-oxo-2,3-dihydro-1H-isoindol-5-yl}piperidin-1-yl)methyl]piperidin-1-yl}phenyl)-1H-pyrrolo[2,3-b]pyridine-3-carbonyl]-2,4-difluorophenyl}methanesulfonamide]
- DC50 [1, 3]: 5 to 50 nM
- Dmax [1, 4]: 35 to 70%
- DC50 [2, 5]: < 1 nM
- Dmax [2, 6]: 35 to 70%

SMILES: O=C1CCC(N2Cc3cc(N4CC5(CN(CCOc6ccc(-c7cnc8[nH]cc(C(=O)c9c(F)ccc(NS(=O)(=O)N%10CC[C@@H](F)C%10)c9F)c8c7)cc6F)C5)C4)ccc3C2=O)C(=O)N1 (stereo partly drawn) [Compound 114, (3R)-N-(3-{5-[4-(2-{6-[2-(2,6-dioxopiperidin-3-yl)-1-oxo-2,3-dihydro-1H-isoindol-5-yl]-2,6-diazaspiro[3.3]heptan-2-yl}ethoxy)-3-fluorophenyl]-1H-pyrrolo[2,3-b]pyridine-3-carbonyl}-2,4-difluorophenyl)-3-fluoropyrrolidine-1-sulfonamide]
- DC50 [1, 3]: 5 to 50 nM
- Dmax [1, 4]: 35 to 70%
- DC50 [2, 5]: 1 to 10 nM
- Dmax [2, 6]: > 70%
